Test results published in patent publication US11041184B2, “Mycobacteriophages capable of delivering auto-luminescent elements and uses thereof” (priority 2016, dated 2021).

Tested on: Mtb
Test: detecting sensitivity of a host bacterial strain (Mtb) to a drug with the ARP phage, luminescence read with a luminometer
Type: cell-based, Mycobacterium tuberculosis
Details: for bioluminescence intensity compared to a control: culture at 37° C. for at least 4 hours, DMSO control
[1] = 37° C., at least 4 hours, RIF 2 μg/mL, INH 1 μg/mL, LZD 1 μg/mL, PNU 0.5 μg/mL
[2] = FIG. 12, RIF 2 μg/mL, INH 1 μg/mL, LZD 1 μg/mL, PNU 0.5 μg/mL

| Compound | sensitivity of Mtb to the drug at the concentration [1] | bioluminescence intensity compared to a control [2] | bioluminescence compared to a control (FIG. 12, culture for 8 hours, EMB 5 μg/mL) | statistical difference between drug group and DMSO control (n.s., p>0.05) (FIG. 12 legend, EMB 5 μg/mL, time not printed in legend) | sensitivity of Mtb to the drug at the concentration (culture for 8 hours, EMB 5 μg/mL) |
| --- | --- | --- | --- | --- | --- |
| CC(=O)NC[C@H]1CN(c2ccc(N3CCOCC3)c(F)c2)C(=O)O1 [linezolid] | sensitivities | significant decrease of bioluminescence intensity | – | – | – |
| CC[C@@H](CO)NCCN[C@@H](CC)CO [ethambutol] | – | – | significant decrease in bioluminescence | no statistical difference | sensitivity |
| NNC(=O)c1ccncc1 [isoniazid] | sensitivities | significant decrease of bioluminescence intensity | – | – | – |
